Laboratory results from paper PMC5717258, “Bioaccumulation of pharmaceuticals and personal care product chemicals in fish exposed to wastewater effluent in an urban wetland” (Scientific Reports, 2017).
Like-named read-outs stand apart in the source and are kept apart here.

Experiments:
[1] = cited from earlier work; for Salmon (whole body) concentration: Table S7, ref Meador et al. (2016); for whole fish concentration, salmon: ref Meador et al. 18
[2] = cited from earlier work; for BAFP: treated WWTP effluent from two Swedish cities
[3] = cited from earlier work
[4] = cited from earlier work; remark: listed apart in the source
[5] = Plasma bioaccumulation factor (BAFP), goldfish; type: in vivo, goldfish (Carassius auratus); details: for BAFP, CPM2 goldfish caged: water sample of August 2012
In short: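 BAFP in goldfish was calculated as plasma concentration (ng/g × 1000) divided by water concentration (ng/L).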

[6] = cited from earlier work; for Sculpin (whole body) concentration: Table S7, ref Meador et al. (2016); for whole fish concentration, sculpin: ref Meador et al. 18
[7] = set-up: method as in US EPA Chemistry Dashboard; details: ref US EPA Chemistry Dashboard; cited from earlier work
[8] = Jordan Harbour brown bullhead, wet weight
Protocol: Plasma from 9 individual male fish (500 µL/individual) was pooled to yield 3 samples for PPCP analysis. […] Plasma from 6 individual carp (2.3–3.5 g) from each location was selected for PPCP analysis. […] Plasma samples were frozen (−80 °C) until analysis.
A total of 20 fish plasma samples from the pooled caged fish (7) and the wild fish (13) along with 12 water samples were selected for analysis. […] A full list of analytes is provided in Supplementary Information. Mass labelled^13C-, or deuterated surrogate internal standards were used for quantification of all analytes via the isotope dilution/surrogate standard quantitation method. Prior to extraction and/or clean-up procedures, aqueous samples were adjusted to pH 2.0, spiked with extraction surrogate standards, then adjusted to pH 4 using tetrasodium ethylenediamine-tetraacetate dihydrate. Plasma samples (2.3–2.5 g) were spiked with extraction surrogate standards, sonicated with 20 mL acetonitrile, then diluted with ultra-pure water to 200 mL. The extracts were cleaned up by solid phase extraction using Oasis HLB cartridges (Waters Ltd. Mississauga ON), filtered, and analyzed by liquid chromatography-electrospray ionization-tandem mass spectrometry (LC/ESI-MS/MS) in positive or negative ionization mode. The analysis of the complete list of analytes (SI Table S1) required a total of five instrumental runs.

in vivo = details: for concentration at 21 days: goldfish (Carassius auratus), in vivo
In short: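 Pooled caged-goldfish plasma, wild-fish plasma (2.3–2.5 g) and water samples were spiked with isotope-labelled surrogates, then extracted (acetonitrile sonication for plasma; pH-adjusted water) and cleaned up by HLB SPE. PPCPs were quantified by LC/ESI-MS/MS using isotope dilution. Non-detects were set to ½ DL when the analyte was detected in ≥2 samples.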

[9] = Plasma bioaccumulation factor (BAFP), carp; type: in vivo, carp (Cyprinus carpio)
Protocol: Bioaccumulation factor (BAFP) was calculated as concentration in fish plasma (ng/g × 1000) divided by concentration in water (ng/L). Two widely used modeling approaches for predicting organic contaminant bioaccumulation were assessed: the BCF-BAF model for whole body BAFs[53] and the fish-plasma concentration calculation of Huggett et al.[35] modified by Berninger et al.[54]. The latter involves estimating an octanol-water partition coefficient (Kow) adjusted for fraction ionized (log D), using the pKa value to adjust log Kow[54] taking into account the pH of CPM waters. Further information on the calculation of log D, blood-water partitioning (PBW), and plasma concentrations (FPC) is given in the SI.

[10] = for plasma concentration, CPM-C 01: Cootes carp 01, 2011, male; for plasma concentration, CPM-C 2: Cootes carp 2, Sep 27, 2011, male; for plasma concentration, CPM-C 10: Cootes carp 10, Sep 28, 2011, female; for plasma concentration, CPM-C 20: Cootes carp 20, 2011, male; for plasma concentration, JH-C 54: Jordan Harbour carp 54, Nov 7, 2011, male; for plasma concentration, JH-C 73: Jordan Harbour carp 73, Nov 7, 2011, female; for plasma concentration, JH-C 74: Jordan Harbour carp 74, Nov 7, 2011, male; for plasma concentration, JH-C 75: Jordan Harbour carp 75, Nov 7, 2011, female; for plasma concentration, JH-C 78: Jordan Harbour carp 78, Nov 7, 2011, male; for plasma concentration, JH-C 82: Jordan Harbour carp 82, Nov 7, 2011, female
[11] = cited from earlier work; remark: listed apart in the source
[12] = conc in fish plasma/conc in water
[13] = range based on range of plasma concentrations
[14] = male, goldfish (Carassius auratus), in vivo

## CN[C@H]1CC[C@@H](c2ccc(Cl)c(Cl)c2)c2ccccc21 [Sertraline]
[1]
  Salmon (whole body) concentration: 17 ng/g
  whole fish concentration, salmon: 17 ng/g wet weight or ng/mL for plasma
[2]; ref Fick et al. 12
  plasma concentration, rainbow trout: 0.30-2.4 ng/g wet weight or ng/mL for plasma
[3]
  BAFP in carp plasma, median: 8.9
[3]; mean ± SD, ref Tanoue et al.16
  plasma concentration, crucian carp & common carp: 0.21±0.18 ng/g wet weight or ng/mL for plasma
[4]; human, converted from µg/mL, ref Schulz et al.[56]
  Therapeutic "normal" blood-plasma/serum concentration: 50 to 250 ng/mL
[4]; human, ref Schulz et al.[56]
  toxic dose (toxic blood-plasma/serum concentration): 290 ng/mL
[4]; ref Berninger & Brooks[60]
  Cmax (human therapeutic dose): 290 ng/mL
[5]
  BAFP, CPM1 goldfish caged: 50 L/kg
  BAFP, CPM2 goldfish caged: 27 L/kg
[6]
  Sculpin (whole body) concentration: 0.2 ng/g
  whole fish concentration, sculpin: 0.2 ng/g wet weight or ng/mL for plasma
[7]
  log Kow: 5.29

## CCN(CC)C(=O)c1cccc(C)c1 [DEET, N,N-Diethyl-m-toluamide]
[1]
  Salmon (whole body) concentration: 0.39 to 1.6 ng/g
  whole fish concentration, salmon: 0.39 - 1.6 ng/g wet weight or ng/mL for plasma
[3]
  BAFP in carp plasma, median: < 6.2
[8]
  plasma concentration, JH-BB: 2.59 ng/g
In vivo; CPM1, 07-2014, pooled plasma, wet weight
  plasma concentration, CPM1 caged: 0.416 ng/g
In vivo; CPM2, 07-2014, pooled plasma, wet weight
  plasma concentration, CPM2 caged: 0.41 ng/g
In vivo; CPM3, 07-2014, pooled plasma, wet weight
  plasma concentration, CPM3 caged: 0.314 ng/g
In vivo; Cootes Paradise Marsh, range
  caged goldfish plasma, range of concentrations: 0.23 to 0.58 ng/g
In vivo; Jordan Harbour reference site, 07-2014, pooled plasma, wet weight
  plasma concentration, JH caged: 0.235 ng/g
[5]
  BAFP, CPM1 goldfish caged: 4 L/kg
  BAFP, CPM2 goldfish caged: 4 L/kg
[5]; CPM3
  BAFP, CPM3 goldfish caged: 4 L/kg
[5]; Jordan Harbour
  BAFP, JH goldfish caged: 9 L/kg
[5]; [12]
  BAFP at CPM3, wild goldfish, average: 9 L/kg
[5]; [13]
  BAFP at CPM3, wild goldfish, range: 4 to 11 L/kg
[6]
  Sculpin (whole body) concentration: 0.41 to 2.2 ng/g
  whole fish concentration, sculpin: 0.41 - 2.2 ng/g wet weight or ng/mL for plasma
[9]; Jordan Harbour
  BAFP at JH, carp, average: 32 L/kg
  BAFP at JH, carp, range: 4 to 51 L/kg
[9]; [12]
  BAFP at CPM3, carp, average: 15 L/kg
[9]; [13]
  BAFP at CPM3, carp, range: 4 to 22 L/kg
[7]
  log Kow: 2.18
[10]; Cootes Paradise Marsh, range
  Cootes carp plasma, range of concentrations: 0.19 to 1.15 ng/g
  wild goldfish plasma, range of concentrations: 0.31 to 0.42 ng/g
[10]; wet weight
  plasma concentration, CPM-C 01: 0.194 ng/g
  plasma concentration, CPM-C 2: 1.09 ng/g
  plasma concentration, CPM-C 10: 1.15 ng/g
  plasma concentration, CPM-C 20: 0.35 ng/g
  plasma concentration, JH-C 54: 0.331 ng/g
  plasma concentration, JH-C 73: 0.083 ng/g
  plasma concentration, JH-C 74: 0.494 ng/g
  plasma concentration, JH-C 75: 0.914 ng/g
  plasma concentration, JH-C 78: 1.09 ng/g
  plasma concentration, JH-C 82: 0.865 ng/g
[10]; Cootes carp 13, Sep 28, 2011, female, wet weight
  plasma concentration, CPM-C 13: 1.1 ng/g
[10]; Cootes carp 36, Oct 3, 2011, female, wet weight
  plasma concentration, CPM-C 36: 0.743 ng/g
[10]; Jordan Harbour, carp vs caged goldfish
  plasma concentration, fold higher in carp plasma than in goldfish: about 2 fold
[10]; Table S7
  Carp plasma concentration, this study (range): 0.19 to 1.15 ng/g
  Goldfish plasma concentration, this study (range): 0.23 to 0.58 ng/g
[10]; Table S8
  plasma concentration, carp, this study (mean): 0.77 ng/g wet weight or ng/mL for plasma
  plasma concentration, goldfish, this study (mean): 0.46 ng/g wet weight or ng/mL for plasma
[10]; wild goldfish sample 01, 2012, wet weight
  plasma concentration, CPM wild-01: 0.234 ng/g
[10]; wild goldfish sample 02, 2012, wet weight
  plasma concentration, CPM wild-02: 0.584 ng/g
[10]; wild goldfish sample 03, 2012, wet weight
  plasma concentration, CPM wild-03: 0.56 ng/g

## O=C1Nc2ccc(Cl)cc2C(c2ccccc2)=NC1O (stereo not drawn) [Oxazepam]
[2]
  BAFP: 0.7–3.6

## CC(C)Cc1ccc(C(C)C(=O)O)cc1 (stereo not drawn) [Ibuprofen]
[2]
  BAFP: 21–58
[8]
  plasma concentration, JH-BB: < 5.7 ng/g
[10]; wet weight
  plasma concentration, CPM-C 01: < 3.16 ng/g
  plasma concentration, CPM-C 2: < 4.31 ng/g
  plasma concentration, CPM-C 10: < 4.53 ng/g
  plasma concentration, CPM-C 20: < 3.23 ng/g
  plasma concentration, JH-C 54: < 3.18 ng/g
  plasma concentration, JH-C 73: < 3.09 ng/g
  plasma concentration, JH-C 74: < 3.19 ng/g
  plasma concentration, JH-C 75: < 4.52 ng/g
  plasma concentration, JH-C 78: < 3.13 ng/g
  plasma concentration, JH-C 82: < 3.01 ng/g

## Cc1cc(C)nc(NS(=O)(=O)c2ccc(N)cc2)n1 [Sulfamethazine]
[11]; ref Zhao et al. 15
  plasma concentration, carp and tilapia: 6.47 ng/g wet weight or ng/mL for plasma
[11]; tilapia and carp species in southern China
  log BAFP: 1.92–4.18
In vivo; caged goldfish plasma, range of concentrations
  concentration at 21 days: 0.06 to 0.17 ng/g
In vivo; plasma concentration, CPM1 caged
  concentration at 21 days: < 0.244 ng/g
In vivo; plasma concentration, CPM2 caged
  concentration at 21 days: < 0.165 ng/g
In vivo; plasma concentration, CPM3 caged
  concentration at 21 days: < 0.123 ng/g
In vivo; plasma concentration, JH caged
  concentration at 21 days: < 0.12 ng/g
[5]; goldfish and carp
  log BAFP, goldfish and carp in this study: 1.53–2.73
[7]
  log Kow: 0.19
[10]; in vivo
  plasma concentration, carp, this study (mean): < mdl
[10]; [14]
  plasma concentration, CPM wild-01: 0.166 ng/g
  plasma concentration, CPM wild-02: 0.084 ng/g
  plasma concentration, CPM wild-03: 0.066 ng/g
  plasma concentration, goldfish, this study (mean): 0.11 ng/g wet weight or ng/mL for plasma
